Assay results as given in US4918193A, “Methods for preparing 3-[N-phenyl-acetylaminopiperidine]-2,6-dion” (priority 1989, dated 1990).
Entries after “also recorded” stand apart in the source; their conditions may differ. Where a name gives a salt, the structure may show the parent alone. Read-outs that look alike come from different tables or passages of the source.

Key:
[1] = Hydrolysis of the sodium salt upon standing; assay type: physicochemical
Experimental: Five thousand grams of 3-[N-phenylacetylaminopiperidine]-2,6-dion was pulverized in a grinder, then suspended in 44 liters of pyrogen-free water. Concentrated sodium hydroxide in pyrogen-free water was added stepwise and stirred until all the powder was dissolved. The pH of the mixture was 7.0. Activated charcoal (U.S.P.) was added and stirred for 45 minutes, and then filtered. The concentration of the filtrate was adjusted to 103 mg/ml with pyrogen free water. The filtrate was then processed according to standard U.S.P. procedure for large volume injections of single dose infusions.

[2] = tested on: Rd/3 sarcoma; settings: rats, Neish, Experientia, 27: 860 (1971), cited from earlier work
[3] = tested on: advanced neoplastic diseases; experiment: Phase I clinical studies, 500 mg capsules (Example 1); assay type: in vivo, human; settings: 500 mg capsules daily
Experimental: The phase I clinical studies with 3-[N-phenylacetylaminopiperidine]-2,6-dion 500 mg capsules involved 42 patients diagnosed with 49 types of advanced neoplastic diseases. The formulation was administered daily for from 6 to 314 days. The highest dosage taken was 288.4 mg/kg/24 hours. […] Positive clinical response was obtained in 75% of 49 treated cases.

[4] = Acute toxicity in mice, intraperitoneal injection
[5] = tested on: human neoplastic diseases; experiment: Treatment of various human neoplastic diseases (general clinical statement); assay type: in vivo
Experimental: Various human neoplastic diseases were treated with 3-[N-phenylacetylaminopiperidine]-2,6-dion or its degradation products.

O=C1CCC(NC(=O)Cc2ccccc2)C(=O)N1 (stereo not shown) [3-[N-phenylacetylaminopiperidine]2,6-dion sodium salt]
basic hydrolysis upon standing [1]: undergoes basic hydrolysis to form the sodium salts of phenylacetyl glutamine and phenylacetyl isoglutamine

O=C(O)Cc1ccccc1 [sodium salt of phenylacetic acid]
effect on tumor growth, Rd/3 sarcoma [2]: failed to inhibit tumor growth
effect on tumor growth, Rd/3 sarcoma ([2]; listed as phenylacetic acid): some enhancement of tumor growth

O=C1CCC(NC(=O)Cc2ccccc2)C(=O)N1 (stereo not shown) [3-[N-phenylacetylaminopiperidine]-2,6-dion]
best clinical effects observed in [3]: chronic myelocytic leukemia and chronic lymphocytic leukemia, adenocarcinoma of the prostate, carcinoma of the breast and glioma
desirable side effects [3]: decrease of plasma levels of triglycerides and cholesterol; also recorded: increase of white blood cell count, red blood cell count and platelet count; also recorded: improvement of blood clotting
adverse reactions ([3]; highest dosage 288.4 mg/kg/24 hours): minimal adverse reactions, including excessive gas, gastrointestinal bleeding (most likely not related to 3-[N-phenylacetylaminopiperidine]-2,6-dion but to primary disease), moderately increased blood pressure, skin rash, vertigo, hypokalemia, hypoglycemia and mild myelosuppression
Positive clinical response ([3]; of 49 treated cases, 6 to 314 days): 75%
autopsy and microscopic findings in animals which died ([4]; HA/ICR swiss mice, intraperitoneal): congestion of the liver and marked pulmonary edema
acute toxicity, overall ([4]; experimental animals): very low toxicity
observation of surviving animals ([4]; kept one week under close observation): normal activity
autopsy and microscopic examination of tissues of surviving animals ([4]; sacrificed after a week, versus control uninjected subjects): identical to those of control, uninjected subjects
usefulness / effectiveness in the treatment of human cancers ([5]; Applicant's clinical studies): effective to some extent in aiding the regression of tumors
regression of tumors associated with named human cancers ([5]; cancer of esophagus, breast, bladder, colon, lung, prostate, pancreas, uterine cervix, brain, bone and lung metastases, lymphatic lymphoma): with success in the regression of tumors
